Measured values as given in ChEMBL document CHEMBL6109146, “Discovery of New Pyrazolone Carbothioamide Derivatives as Potent Antifungal Agents for the Treatment of Candidiasis and Cryptococcosis” (J Med Chem, 2025).
Activity calls are given as the source filed them. The rule behind the calls is not given here.

What was measured:
[Candida] auris [1] = Antifungal activity against Candida auris 0030 assessed as inhibition of fungal growth incubated for 48 to 72 hrs by microplate reader analysis; assay type: functional, organism-based; details: Candidozyma auris, time 48-72 hrs
Cryptococcus neoformans [2] = assay: Antifungal activity against Cryptococcus neoformans H99 assessed as inhibition of fungal growth incubated for 48 to 72 hrs by microplate reader analysis; assay type: functional; details: time 48-72 hrs
Candida albicans [3] = assay: Antifungal activity against Candida albicans 103 assessed as inhibition of fungal growth incubated for 48 to 72 hrs by microplate reader analysis; assay type: functional, organism-based; details: time 48-72 hrs
Cryptococcus neoformans [4] = assay: Antifungal activity against Cryptococcus neoformans 011409 assessed as inhibition of fungal growth incubated for 48 to 72 hrs by microplate reader analysis; assay type: functional; details: time 48-72 hrs
Candida albicans [5] = assay: Antifungal activity against Candida albicans SC5314 assessed as inhibition of fungal growth incubated for 48 to 72 hrs by microplate reader analysis; assay type: functional, organism-based; details: time 48-72 hrs
Cryptococcus gattii = assay: Antifungal activity against Cryptococcus gattii 01063P assessed as inhibition of fungal growth incubated for 48 to 72 hrs by microplate reader analysis; assay type: functional; details: time 48-72 hrs
Cryptococcus neoformans [6] = assay: Antifungal activity against Cryptococcus neoformans HN-68 assessed as inhibition of fungal growth incubated for 48 to 72 hrs by microplate reader analysis; assay type: functional; details: time 48-72 hrs
Nakaseomyces glabratus [7] = assay: Antifungal activity against Candida glabrata 8535 assessed as inhibition of fungal growth incubated for 48 to 72 hrs by microplate reader analysis; assay type: functional; details: time 48-72 hrs
[Candida] auris [8] = Antifungal activity against Candida auris 15448 assessed as inhibition of fungal growth incubated for 48 to 72 hrs by microplate reader analysis; assay type: functional, organism-based; details: Candidozyma auris, time 48-72 hrs
Candida albicans [9] = assay: Antifungal activity against Candida albicans 9296 assessed as inhibition of fungal growth incubated for 48 to 72 hrs by microplate reader analysis; assay type: functional, organism-based; details: time 48-72 hrs
Nakaseomyces glabratus [10] = assay: Antifungal activity against Candida glabrata 0161 assessed as inhibition of fungal growth incubated for 48 to 72 hrs by microplate reader analysis; assay type: functional; details: time 48-72 hrs
Nakaseomyces glabratus [11] = assay: Antifungal activity against Candida glabrata 9256 assessed as inhibition of fungal growth incubated for 48 to 72 hrs by microplate reader analysis; assay type: functional; details: time 48-72 hrs
[Candida] auris [12] = Antifungal activity against Candida auris 0029 assessed as inhibition of fungal growth incubated for 48 to 72 hrs by microplate reader analysis; assay type: functional, organism-based; details: Candidozyma auris, time 48-72 hrs

## Nc1cc(=O)n(C(=S)Nc2ccc3ncccc3c2)[nH]1
[Candida] auris [1]
  Activity: Not active; Decrease In Activity Observed
Cryptococcus neoformans [2]
  Activity: Active
Candida albicans [3]
  Activity: Not active; Decrease In Activity Observed
Cryptococcus neoformans [4]
  Activity: Active
Candida albicans [5]
  Activity: Not active; Decrease In Activity Observed
Cryptococcus gattii
  Activity: Active
Cryptococcus neoformans [6]
  Activity: Active
Nakaseomyces glabratus [7]
  Activity: Active
[Candida] auris [8]
  Activity: Not active; Decrease In Activity Observed
Candida albicans [9]
  Activity: Not active; Decrease In Activity Observed
Nakaseomyces glabratus [10]
  Activity: Active
Nakaseomyces glabratus [11]
  Activity: Active
[Candida] auris [12]
  Activity: Not active; Decrease In Activity Observed

## Nc1cc(=O)n(C(=S)Nc2cccnc2)[nH]1
[Candida] auris [1]
  Activity: inactive
Cryptococcus neoformans [2]
  Activity: Not active; Decrease In Activity Observed
Candida albicans [3]
  Activity: inactive
Cryptococcus neoformans [4]
  Activity: Not active; Decrease In Activity Observed
Candida albicans [5]
  Activity: inactive
Cryptococcus gattii
  Activity: Not active; Decrease In Activity Observed
Cryptococcus neoformans [6]
  Activity: Not active; Decrease In Activity Observed
Nakaseomyces glabratus [7]
  Activity: Not active; Decrease In Activity Observed
[Candida] auris [8]
  Activity: inactive
Candida albicans [9]
  Activity: inactive
Nakaseomyces glabratus [10]
  Activity: Not active; Decrease In Activity Observed
Nakaseomyces glabratus [11]
  Activity: Not active; Decrease In Activity Observed
[Candida] auris [12]
  Activity: inactive

## CCCCc1ccc(NC(=S)n2[nH]c(N)cc2=O)cc1
[Candida] auris [1]
  Activity: Active
Cryptococcus neoformans [2]
  Activity: Active
Candida albicans [3]
  Activity: Active
Cryptococcus neoformans [4]
  Activity: Active
Candida albicans [5]
  Activity: Active
Cryptococcus gattii
  Activity: Active
Cryptococcus neoformans [6]
  Activity: Active
Nakaseomyces glabratus [7]
  Activity: Active
[Candida] auris [8]
  Activity: Active
Candida albicans [9]
  Activity: Active
Nakaseomyces glabratus [10]
  Activity: Active
Nakaseomyces glabratus [11]
  Activity: Active
[Candida] auris [12]
  Activity: Active

## CCCCCCc1ccc(NC(=S)n2[nH]c(N)cc2=O)cc1
[Candida] auris [1]
  Activity: Active
Cryptococcus neoformans [2]
  Activity: Active
Candida albicans [3]
  Activity: Active
Cryptococcus neoformans [4]
  Activity: Active
Candida albicans [5]
  Activity: Active
Cryptococcus gattii
  Activity: Active
Cryptococcus neoformans [6]
  Activity: Active
Nakaseomyces glabratus [7]
  Activity: Active
[Candida] auris [8]
  Activity: Active
Candida albicans [9]
  Activity: Active
Nakaseomyces glabratus [10]
  Activity: Active
Nakaseomyces glabratus [11]
  Activity: Active
[Candida] auris [12]
  Activity: Active

## CS(=O)(=O)c1ccc(NC(=S)n2[nH]c(N)cc2=O)cc1
[Candida] auris [1]
  Activity: Not active; Compound Demonstrated Reduced Activity Compared To Lead Compound 1
Cryptococcus neoformans [2]
  Activity: Not active; Compound Demonstrated Reduced Activity Compared To Lead Compound 1
Candida albicans [3]
  Activity: Not active; Compound Demonstrated Reduced Activity Compared To Lead Compound 1
Cryptococcus neoformans [4]
  Activity: Not active; Compound Demonstrated Reduced Activity Compared To Lead Compound 1
Candida albicans [5]
  Activity: Not active; Compound Demonstrated Reduced Activity Compared To Lead Compound 1
Cryptococcus gattii
  Activity: Not active; Compound Demonstrated Reduced Activity Compared To Lead Compound 1
Cryptococcus neoformans [6]
  Activity: Not active; Compound Demonstrated Reduced Activity Compared To Lead Compound 1
Nakaseomyces glabratus [7]
  Activity: Active
[Candida] auris [8]
  Activity: Not active; Compound Demonstrated Reduced Activity Compared To Lead Compound 1
Candida albicans [9]
  Activity: Not active; Compound Demonstrated Reduced Activity Compared To Lead Compound 1
Nakaseomyces glabratus [10]
  Activity: Active
Nakaseomyces glabratus [11]
  Activity: Active
[Candida] auris [12]
  Activity: Not active; Compound Demonstrated Reduced Activity Compared To Lead Compound 1

## CCc1ccc(NC(=O)n2[nH]c(N)cc2=O)cc1
[Candida] auris [1]
  Activity: inactive
Cryptococcus neoformans [2]
  Activity: inactive
Candida albicans [3]
  Activity: inactive
Cryptococcus neoformans [4]
  Activity: inactive
Candida albicans [5]
  Activity: inactive
Cryptococcus gattii
  Activity: inactive
Cryptococcus neoformans [6]
  Activity: inactive
Nakaseomyces glabratus [7]
  Activity: inactive
[Candida] auris [8]
  Activity: inactive
Candida albicans [9]
  Activity: inactive
Nakaseomyces glabratus [10]
  Activity: inactive
Nakaseomyces glabratus [11]
  Activity: inactive
[Candida] auris [12]
  Activity: inactive

## Nc1ccn(C(=S)Nc2ccc(C3CCCCC3)cc2)n1
[Candida] auris [1]
  Activity: inactive
Cryptococcus neoformans [2]
  Activity: inactive
Candida albicans [3]
  Activity: inactive
Cryptococcus neoformans [4]
  Activity: inactive
Candida albicans [5]
  Activity: inactive
Cryptococcus gattii
  Activity: inactive
Cryptococcus neoformans [6]
  Activity: inactive
Nakaseomyces glabratus [7]
  Activity: inactive
[Candida] auris [8]
  Activity: inactive
Candida albicans [9]
  Activity: inactive
Nakaseomyces glabratus [10]
  Activity: inactive
Nakaseomyces glabratus [11]
  Activity: inactive
[Candida] auris [12]
  Activity: inactive

## Nc1cc(=O)n(C(=S)Nc2ccc3c(c2)COC3=O)[nH]1
[Candida] auris [1]
  Activity: inactive
Cryptococcus neoformans [2]
  Activity: Not active; Decrease In Activity Observed
Candida albicans [3]
  Activity: inactive
Cryptococcus neoformans [4]
  Activity: Not active; Decrease In Activity Observed
Candida albicans [5]
  Activity: inactive
Cryptococcus gattii
  Activity: Not active; Decrease In Activity Observed
Cryptococcus neoformans [6]
  Activity: Not active; Decrease In Activity Observed
Nakaseomyces glabratus [7]
  Activity: Not active; Decrease In Activity Observed
[Candida] auris [8]
  Activity: inactive
Candida albicans [9]
  Activity: inactive
Nakaseomyces glabratus [10]
  Activity: Not active; Decrease In Activity Observed
Nakaseomyces glabratus [11]
  Activity: Not active; Decrease In Activity Observed
[Candida] auris [12]
  Activity: inactive

## Nc1cc(=O)n(C(=S)Nc2ccc(OC3CCCC3)cc2)[nH]1
[Candida] auris [1]
  Activity: Active
Cryptococcus neoformans [2]
  Activity: Active
Candida albicans [3]
  Activity: Active
Cryptococcus neoformans [4]
  Activity: Active
Candida albicans [5]
  Activity: Active
Cryptococcus gattii
  Activity: Active
Cryptococcus neoformans [6]
  Activity: Active
Nakaseomyces glabratus [7]
  Activity: Active
[Candida] auris [8]
  Activity: Active
Candida albicans [9]
  Activity: Active
Nakaseomyces glabratus [10]
  Activity: Active
Nakaseomyces glabratus [11]
  Activity: Active
[Candida] auris [12]
  Activity: Active

## CNC(=O)c1ccc(NC(=S)n2[nH]c(N)cc2=O)cc1
[Candida] auris [1]
  Activity: Not active; Compound Demonstrated Reduced Activity Compared To Lead Compound 1
Cryptococcus neoformans [2]
  Activity: Not active; Compound Demonstrated Reduced Activity Compared To Lead Compound 1
Candida albicans [3]
  Activity: Not active; Compound Demonstrated Reduced Activity Compared To Lead Compound 1
Cryptococcus neoformans [4]
  Activity: Not active; Compound Demonstrated Reduced Activity Compared To Lead Compound 1
Candida albicans [5]
  Activity: Not active; Compound Demonstrated Reduced Activity Compared To Lead Compound 1
Cryptococcus gattii
  Activity: Not active; Compound Demonstrated Reduced Activity Compared To Lead Compound 1
Cryptococcus neoformans [6]
  Activity: Not active; Compound Demonstrated Reduced Activity Compared To Lead Compound 1
Nakaseomyces glabratus [7]
  Activity: Active
[Candida] auris [8]
  Activity: Not active; Compound Demonstrated Reduced Activity Compared To Lead Compound 1
Candida albicans [9]
  Activity: Not active; Compound Demonstrated Reduced Activity Compared To Lead Compound 1
Nakaseomyces glabratus [10]
  Activity: Active
Nakaseomyces glabratus [11]
  Activity: Active
[Candida] auris [12]
  Activity: Not active; Compound Demonstrated Reduced Activity Compared To Lead Compound 1

## Nc1cc(=O)n(C(=S)Nc2ccc(OC3CCCCC3)cc2)[nH]1
[Candida] auris [1]
  Activity: Active
Cryptococcus neoformans [2]
  Activity: Active
Candida albicans [3]
  Activity: Active
Cryptococcus neoformans [4]
  Activity: Active
Candida albicans [5]
  Activity: Active
Cryptococcus gattii
  Activity: Active
Cryptococcus neoformans [6]
  Activity: Active
Nakaseomyces glabratus [7]
  Activity: Active
[Candida] auris [8]
  Activity: Active
Candida albicans [9]
  Activity: Active
Nakaseomyces glabratus [10]
  Activity: Active
Nakaseomyces glabratus [11]
  Activity: Active
[Candida] auris [12]
  Activity: Active
